# Laboratory results published in patent publication US20080003214A1, “Medicaments Comprising Carbonyl Compounds, And The Use Thereof” (priority 2004, published 2008).
# Target: factor Xa (Homo sapiens, UniProt P00742)
# Test: Inhibition of factor Xa (FXa-IC50)
# Format: biochemical
# Details: Table 1, headed 'Affinity to receptors'; read-out: FXa-IC50
# Text: The inhibition of factor Xa by the compounds according to the invention and the measurement of the anticoagulant and antithrombotic activity can be determined by conventional in-vitro or in-vivo methods. A suitable method is described, for example, by J. Hauptmann et al. in Thrombosis and Haemostasis 1990, 63, 220-223.
# The inhibition of factor Xa can be measured, for example by the method of T. Hara et al. in Thromb. Haemostas. 1994, 71, 314-319.
# Sequence of factor Xa (P00742 235-488 limits assumed): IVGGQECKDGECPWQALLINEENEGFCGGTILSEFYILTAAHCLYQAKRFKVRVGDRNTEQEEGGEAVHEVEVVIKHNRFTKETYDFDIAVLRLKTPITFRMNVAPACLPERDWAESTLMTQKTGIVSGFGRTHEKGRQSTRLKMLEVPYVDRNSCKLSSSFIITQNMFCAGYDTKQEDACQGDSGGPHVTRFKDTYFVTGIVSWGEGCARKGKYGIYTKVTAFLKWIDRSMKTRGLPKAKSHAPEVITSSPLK
# Sequence of factor Xa (P00742 41-179 partner limits assumed): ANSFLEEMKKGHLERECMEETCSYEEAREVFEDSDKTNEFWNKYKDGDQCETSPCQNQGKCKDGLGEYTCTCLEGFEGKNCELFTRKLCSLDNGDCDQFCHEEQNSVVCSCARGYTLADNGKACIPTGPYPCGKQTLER
row,Compound,IC50 [nM]
1,O=C(Nc1ccc(N2CCOCC2=O)cc1)[C@H]1CCCN1C(=O)c1ccc(Cl)s1 [AB1],1800
2,"O=C(Nc1ccc(N2CCOCC2=O)cc1)[C@H]1CCCN1C(=O)Nc1ccc(Cl)cc1 [Compound A1, 1-N-[(4-chlorophenyl)]-2-N-{[4-(3-oxomorpholin-4-yl)phenyl]}-(R)-pyrrolidine-1,2-dicarboxamide]",18
3,"O=C(Nc1ccc(-n2ccccc2=O)cc1)[C@H]1C[C@@H](O)CN1C(=O)Nc1ccc(Cl)cn1 [Compound A6, 1-N-[(5-chloropyridin-2-yl)]-2-N-{[4-(2-oxo-2H-pyridin-1-yl)phenyl]}-(2R,4R)-4-hydroxypyrrolidine-1,2-dicarboxamide]",3.7

# Same assay, conditions: read-out: IC50(Xa)
row,Compound,IC50 [nM]
1,"CCO[C@@H]1C[C@H](C(=O)Nc2ccc(-n3nc(C)sc3=N)cc2)N(C(=O)Nc2ccc(Cl)cc2)C1 [1-N-[(4-chlorophenyl)]-2-N-{[4-(2-imino-5-methyl-1,3,4-thiadiazol-3-yl)phenyl]}-(2R,4R)-4-ethoxypyrrolidine-1,2-dicarboxamide]",4.8
2,"Cc1nn(-c2ccc(NC(=O)[C@H]3C[C@@H](OC(C)C)CN3C(=O)Nc3ccc(Cl)cc3)cc2)c(=N)s1 [1-N-[(4-chlorophenyl)]-2-N-{[4-(2-imino-5-methyl-1,3,4-thiadiazol-3-yl)phenyl]}-(2R,4R)-4-isopropoxypyrrolidine-1,2-dicarboxamide]",3
3,"CO[C@@H]1C[C@H](C(=O)Nc2ccc(-n3nc(C)sc3=N)cc2)N(C(=O)Nc2ccc(Cl)cc2)C1 [1-N-[(4-chlorophenyl)]-2-N-{[4-(2-imino-5-methyl-1,3,4-thiadiazol-3-yl)phenyl]}-(2R,4R)-4-methoxypyrrolidine-1,2-dicarboxamide]",6.1
4,"Nc1ccc(O[C@H]2C[C@H](C(=O)Nc3ccc(N4CCOCC4=O)cc3)N(C(=O)Nc3ccc(Cl)cc3)C2)cc1 [Example 13-16, 1-N-[(4-chlorophenyl)]-2-N-{[4-(3-oxomorpholin-4-yl)phenyl]}-(2R,4S)-4-(4-aminophenoxy)pyrrolidine-1,2-dicarboxamide]",25
5,"O=C(Nc1ccc(N2CCOCC2=O)cc1)[C@H]1C[C@@H](OCC(F)(F)F)CN1C(=O)Nc1ccc(Cl)cc1 [Example 13-18, 1-N-[(4-chlorophenyl)]-2-N-{[4-(3-oxomorpholin-4-yl)phenyl]}-(2R,4R)-4-(2,2,2-trifluoroethoxy)pyrrolidine-1,2-dicarboxamide]",9.7

# System: not given
# Test: not given
# Details: not given
row,Compound,melting point [°C]
1,"[N-]=[N+]=N[C@H]1C[C@H](C(=O)Nc2ccc(N3CCOCC3=O)cc2)N(C(=O)Nc2ccc(Cl)cc2)C1 [Compound A9, 1-N-[(4-chlorophenyl)]-2-N-{[4-(3-oxomorpholin-4-yl)phenyl]}-(2R,4S)-4-azidopyrrolidine-1,2-dicarboxamide]",145
